Test results taken from US20230416248A1, “COMPOUNDS AND USES THEREOF” (Foghorn Therapeutics Inc., priority 2020, published 2023).
Like-named read-outs stand apart in the source and are kept apart here.

Experiments:
[1] = target: T1, BRM (Homo sapiens, UniProt P51531); test: ATPase catalytic activity of BRM, ADP-Glo in vitro biochemical assay; settings: for IC50: 30 nM BRM, 400 μM ATP; for Ratio* (BRG1 IC50 (μM) divided by BRM IC50 (μM)): selectivity ratio BRG1 IC50 / BRM IC50
T1 construct: made in house; host or cells: High Five insect cells
Outline: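 Recombinant BRM (30 nM) hydrolysed 400 μM ATP with 20 nM salmon sperm DNA in pH 8 Tris buffer containing 20 mM MgCl2, 50 mM NaCl, 0.1% Tween-20 and 1 mM DTT, 1 h at room temperature. ADP formed was quantified by ADP-Glo luminescence.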

[2] = target: T2, BRG-1 (Homo sapiens, UniProt P51532); test: ATPase catalytic activity of BRG-1, ADP-Glo in vitro biochemical assay; settings: 30 nM BRG-1, 400 μM ATP, read-out: BRG1 IC50
T2 construct: made in house; host or cells: High Five insect cells
Outline: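 BRG-1 ATPase activity was measured in vitro by ADP-Glo. After the reaction, ADP-Glo Reagent depleted unconsumed ATP (40 min, room temperature), then Kinase Detection Reagent converted product ADP to ATP (60 min, room temperature), and luciferase luminescence was read.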

[3] = ATPase catalytic activity, ADP-Glo

T2 sequence (P51532 whole entry): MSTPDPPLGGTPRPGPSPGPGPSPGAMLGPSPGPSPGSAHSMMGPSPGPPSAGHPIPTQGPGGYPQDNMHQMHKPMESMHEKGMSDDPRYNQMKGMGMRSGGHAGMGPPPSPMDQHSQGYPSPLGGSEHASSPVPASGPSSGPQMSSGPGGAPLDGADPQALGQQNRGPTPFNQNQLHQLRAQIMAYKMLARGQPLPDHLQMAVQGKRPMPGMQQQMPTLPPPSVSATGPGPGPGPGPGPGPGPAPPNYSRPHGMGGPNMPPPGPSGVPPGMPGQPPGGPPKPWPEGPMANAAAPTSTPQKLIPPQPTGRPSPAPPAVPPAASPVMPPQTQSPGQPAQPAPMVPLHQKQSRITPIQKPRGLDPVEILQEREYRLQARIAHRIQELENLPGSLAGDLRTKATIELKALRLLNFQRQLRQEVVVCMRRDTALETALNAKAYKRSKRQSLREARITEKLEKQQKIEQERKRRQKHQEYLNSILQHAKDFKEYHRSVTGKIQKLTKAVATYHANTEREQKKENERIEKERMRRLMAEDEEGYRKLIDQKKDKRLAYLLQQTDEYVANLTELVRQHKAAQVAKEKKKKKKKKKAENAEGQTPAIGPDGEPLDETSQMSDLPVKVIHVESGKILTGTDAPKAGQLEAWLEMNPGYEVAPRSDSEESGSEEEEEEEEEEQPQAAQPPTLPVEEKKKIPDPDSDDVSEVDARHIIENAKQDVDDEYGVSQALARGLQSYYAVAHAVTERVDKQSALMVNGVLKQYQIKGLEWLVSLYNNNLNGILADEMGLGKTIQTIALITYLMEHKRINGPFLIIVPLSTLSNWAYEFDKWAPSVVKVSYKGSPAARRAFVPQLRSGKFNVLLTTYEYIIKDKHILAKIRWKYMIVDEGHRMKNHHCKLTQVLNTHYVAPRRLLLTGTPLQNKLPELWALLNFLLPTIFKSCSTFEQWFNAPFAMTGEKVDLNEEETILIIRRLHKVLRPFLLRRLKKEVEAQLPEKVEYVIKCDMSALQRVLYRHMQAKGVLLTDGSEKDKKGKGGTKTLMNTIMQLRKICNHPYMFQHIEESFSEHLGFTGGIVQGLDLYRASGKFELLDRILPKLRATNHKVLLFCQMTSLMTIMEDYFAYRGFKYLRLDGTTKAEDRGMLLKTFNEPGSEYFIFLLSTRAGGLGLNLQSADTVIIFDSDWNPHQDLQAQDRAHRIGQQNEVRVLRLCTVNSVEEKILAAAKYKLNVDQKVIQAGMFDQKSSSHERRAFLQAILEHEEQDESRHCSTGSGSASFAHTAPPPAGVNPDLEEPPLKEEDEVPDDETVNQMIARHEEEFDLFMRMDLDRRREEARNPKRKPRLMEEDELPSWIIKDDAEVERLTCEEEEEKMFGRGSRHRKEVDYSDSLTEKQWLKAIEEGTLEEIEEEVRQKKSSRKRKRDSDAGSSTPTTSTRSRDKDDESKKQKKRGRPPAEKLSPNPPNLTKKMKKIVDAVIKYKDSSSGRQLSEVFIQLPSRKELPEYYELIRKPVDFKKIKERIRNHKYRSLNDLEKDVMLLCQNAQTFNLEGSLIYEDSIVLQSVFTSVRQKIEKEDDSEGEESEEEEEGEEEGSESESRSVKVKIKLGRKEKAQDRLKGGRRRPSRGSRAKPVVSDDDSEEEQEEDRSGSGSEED
T1 sequence (P51531 whole entry): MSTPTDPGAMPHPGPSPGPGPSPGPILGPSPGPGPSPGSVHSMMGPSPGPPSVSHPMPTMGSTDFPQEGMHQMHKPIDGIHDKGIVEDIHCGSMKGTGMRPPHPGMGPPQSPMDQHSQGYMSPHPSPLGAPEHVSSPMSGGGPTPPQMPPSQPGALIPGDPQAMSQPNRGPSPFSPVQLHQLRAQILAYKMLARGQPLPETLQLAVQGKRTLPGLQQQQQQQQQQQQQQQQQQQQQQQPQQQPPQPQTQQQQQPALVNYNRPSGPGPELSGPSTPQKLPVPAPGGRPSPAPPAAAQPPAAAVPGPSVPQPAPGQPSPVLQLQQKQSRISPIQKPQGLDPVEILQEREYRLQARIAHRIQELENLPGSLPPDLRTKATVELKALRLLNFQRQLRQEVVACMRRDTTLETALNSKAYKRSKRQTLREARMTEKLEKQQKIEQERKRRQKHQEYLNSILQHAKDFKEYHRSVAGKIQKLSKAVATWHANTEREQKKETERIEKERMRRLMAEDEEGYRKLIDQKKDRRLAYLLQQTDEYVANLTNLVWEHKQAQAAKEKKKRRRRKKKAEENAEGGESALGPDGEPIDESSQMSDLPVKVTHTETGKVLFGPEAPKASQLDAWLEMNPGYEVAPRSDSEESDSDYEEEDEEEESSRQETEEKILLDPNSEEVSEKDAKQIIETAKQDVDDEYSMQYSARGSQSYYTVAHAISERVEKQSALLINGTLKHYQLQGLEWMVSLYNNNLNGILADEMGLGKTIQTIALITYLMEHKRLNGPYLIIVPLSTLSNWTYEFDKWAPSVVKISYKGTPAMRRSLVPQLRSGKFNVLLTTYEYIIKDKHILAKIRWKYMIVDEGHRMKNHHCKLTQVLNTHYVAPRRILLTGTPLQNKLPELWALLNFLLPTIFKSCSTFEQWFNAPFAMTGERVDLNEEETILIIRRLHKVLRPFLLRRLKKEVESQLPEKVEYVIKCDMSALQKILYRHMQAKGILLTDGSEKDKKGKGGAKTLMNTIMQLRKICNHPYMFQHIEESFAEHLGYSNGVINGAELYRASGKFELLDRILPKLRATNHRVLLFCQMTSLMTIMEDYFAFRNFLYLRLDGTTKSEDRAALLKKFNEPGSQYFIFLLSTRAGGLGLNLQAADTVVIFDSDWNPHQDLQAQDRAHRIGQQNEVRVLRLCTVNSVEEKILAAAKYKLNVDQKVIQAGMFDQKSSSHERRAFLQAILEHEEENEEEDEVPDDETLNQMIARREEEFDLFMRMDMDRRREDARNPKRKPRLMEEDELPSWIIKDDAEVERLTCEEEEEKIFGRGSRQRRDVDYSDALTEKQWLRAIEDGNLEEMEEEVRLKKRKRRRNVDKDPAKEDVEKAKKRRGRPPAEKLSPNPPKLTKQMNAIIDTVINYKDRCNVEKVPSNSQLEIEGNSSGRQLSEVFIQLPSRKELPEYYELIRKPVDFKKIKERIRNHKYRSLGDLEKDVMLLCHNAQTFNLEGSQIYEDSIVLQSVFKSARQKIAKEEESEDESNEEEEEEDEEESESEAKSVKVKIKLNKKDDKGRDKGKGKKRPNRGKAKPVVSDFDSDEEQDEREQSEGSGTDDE

Row | IC50 [1, 3] [nM] | Ratio* ([1]; ratio of BRG1 IC50 to BRM IC50) | IC50 [2, 3] [nM] | IC50 ([1]; ADP-Glo ATPase assay) [nM] | Ratio* ([1]; ratio BRG1 IC50 / BRM IC50) | IC50 ([2]; ADP-Glo ATPase assay) [nM] | Ratio* (BRG1 IC50 (μM) divided by BRM IC50 (μM)) [1] | Compound
1 | 185 | 4.97 | 919 | – | – | – | – | O=C(NCc1cc2nc(-c3cccc(N(C4CCOCC4)C4CC4)n3)ccc2cn1)c1ccc2c(c1)S(=O)(=O)CCOC2 [Compound 398]
2 | – | – | – | 19.1 | 10.04 | 192 | – | O=C(NCc1cc2nc(N3CCOc4cc(N5CCCC5)cnc43)ccc2cn1)c1ccc2c(c1)S(=O)(=O)CCOC2 [Compound 754]
3 | 4.2 | 10.13 | 42.6 | – | – | – | – | Cc1ccc2c(c1)OCCN2c1ccc2cnc(CNC(=O)c3ccc4c(c3)S(=O)(=O)CCOC4)cc2n1 [Compound 420]
4 | – | – | – | 19.1 | 25.47 | 486 | – | [2H]C1([2H])OC([2H])([2H])C([2H])([2H])S(=O)(=O)c2cc(C(=O)NCc3cc4nc(N5CCOc6ccc(C(F)F)nc65)ccc4cn3)ccc21 [Compound 807]
5 | 22.1 | 16.22 | 358 | – | – | – | – | CCN1CCN(c2ccc3cnc(CNC(=O)c4ccc5c(c4)S(=O)(=O)CCOC5)cc3n2)c2ncccc21 [Compound 615]
6 | 25 | 14.93 | 373 | – | – | – | – | O=C(NCc1cc2nc(-c3cccc(C45COCC4C5)n3)ccc2cn1)c1ccc2c(c1)S(=O)(=O)CCOC2 (stereo not drawn) [Compound 472]
7 | – | – | – | 7 | – | 66.2 | 9.47 | C[C@@H]1CN(c2cccc(-c3ccc4cnc(CNC(=O)c5ccc6c(c5)S(=O)(=O)CCOC6)cc4n3)n2)C[C@@H](C)O1 [Compound 215]
8 | – | – | – | 8.1 | – | 59.1 | 7.31 | CO[C@@H]1CCN(c2cccc(-c3ccc4cnc(CNC(=O)c5ccc6c(c5)S(=O)(=O)CCOC6)cc4n3)n2)C1 [Compound 200]
9 | – | – | – | 19 | 19.99 | 380 | – | O=C(NCc1cc2nc(N3CCOc4cc(C5CC5)ccc43)cnc2cn1)c1ccc2c(c1)S(=O)(=O)CCOC2 [Compound 844]
10 | – | – | – | 52.4 | – | 499 | 9.52 | O=C(NCc1cc2nc(-c3cccc(C4CC(F)(F)C4)n3)ccc2cn1)c1ccc2c(c1)S(=O)(=O)CCOC2 [Compound 171]
11 | – | – | – | 94 | – | 879 | 9.35 | COC1CCOc2c(-c3ccc4cnc(CNC(=O)c5ccc6c(c5)S(=O)(=O)CCOC6)cc4n3)cccc21 (stereo not drawn) [Compound 168]
12 | 13 | 14.45 | 189 | – | – | – | – | CCOC1CCS(=O)(=O)c2cc(C(=O)NCc3cc4nc(-c5cccc(N6CC(C)OC(C)C6)n5)ccc4cn3)ccc2C1 (stereo not drawn) [Compound 485]
13 | 7.2 | 8.17 | 59 | – | – | – | – | COCc1cc2c(nc1Cl)N(c1ccc3cnc(CNC(=O)c4ccc5c(c4)S(=O)(=O)CCOC5)cc3n1)CCC2 [Compound 660]
14 | – | – | – | 43.6 | 5.30 | 231 | – | O=C(NCc1cc2nc(N3CCc4cc(C(F)F)cnc43)ccc2cn1)c1ccc2c(c1)S(=O)(=O)CCOC2 [Compound 720]
15 | 12.7 | 9.04 | 115 | – | – | – | – | C[C@H]1COCc2ccc(C(=O)NCc3cc4nc(N5CCCc6cc(N(C)C)cnc65)ccc4cn3)cc2S1(=O)=O [Compound 650]
16 | 106 | 16.67 | 1760 | – | – | – | – | CC[C@@H]1CCS(=O)(=O)c2cc(C(=O)NCc3cc4nc(-c5cccc(N6C[C@@H](C)O[C@@H](C)C6)n5)ccc4cn3)ccc2O1 [Compound 580]
17 | – | – | – | 29.9 | 10.98 | 329 | – | O=C(NCc1cc2nc(N3CC(F)Cc4cccnc43)ccc2cn1)c1ccc2c(c1)S(=O)(=O)CCOC2 (stereo not drawn) [Compound 842]

Row | IC50 [1, 3] [nM] | Ratio* ([1]; ratio of BRG1 IC50 to BRM IC50) | IC50 [2, 3] [nM] | IC50 ([1]; ADP-Glo ATPase assay) [nM] | Ratio* ([1]; ratio BRG1 IC50 / BRM IC50) | IC50 ([2]; ADP-Glo ATPase assay) [nM] | Ratio* (BRG1 IC50 (μM) divided by BRM IC50 (μM)) [1] | Compound
18 | 15.2 | 11.51 | 175 | – | – | – | – | Cn1c(C(F)F)cc2c(-c3ccc4cnc(CNC(=O)c5ccc6c(c5)S(=O)(=O)CCOC6)cc4n3)ccnc21 [Compound 397]
19 | – | – | – | 672 | – | 5000 | 7.43 | CN(c1ccccn1)c1ccc2cnc(CNC(=O)c3ccc4c(c3)S(=O)(=O)CCOC4)cc2n1 [Compound 108]
20 | – | – | – | 5.5 | 2.13 | 11.7 | – | C[C@@H]1CN(c2cccc(-c3ccc4cnc(CNC(=O)c5ccc6c(c5)S(=O)(=O)CCC(F)C6)cc4n3)n2)C[C@H](C)O1 (stereo partly drawn) [Compound 779]
21 | – | – | – | 84.9 | – | 1320 | 15.55 | CCS(=O)(=O)c1cc(C(=O)NCc2cc3nc(-c4cncc(C5CC5)n4)ccc3cn2)ccc1C [Compound 275]
22 | 155 | 15.23 | 2370 | – | – | – | – | C[C@@H]1CN(c2cccc(-c3ccc4cnc(CNC(=O)c5ccc6c(c5)S(=O)(=O)CC[C@@H](C(F)F)O6)cc4n3)n2)C[C@H](C)O1 [Compound 581]
23 | 21.9 | 9.67 | 211 | – | – | – | – | CCN(c1cccc(-c2ccc3cnc(CNC(=O)c4ccc5c(c4)S(=O)(=O)CCOC5)cc3n2)n1)C1CC1 [Compound 337]
24 | – | – | – | 108 | – | 1490 | 13.78 | C[C@@H]1[C@@H](c2cccc(-c3ccc4cnc(CNC(=O)c5ccc6c(c5)S(=O)(=O)CCOC6)cc4n3)n2)C1(F)F [Compound 173]
25 | 24.8 | 11.79 | 292 | – | – | – | – | CO[C@H]1CCN(c2cccc(-c3ccc4cnc(CNC(=O)c5ccc6c(c5)S(=O)(=O)CCOC6)cc4n3)n2)C[C@H]1C [Compound 437]
26 | 60.2 | 8.02 | 483 | – | – | – | – | CO[C@H]1CCN(c2cccc(-c3ccc4cnc(CNC(=O)c5ccc6c(c5)S(=O)(=O)CCOC6)cc4n3)n2)C[C@@H]1C [Compound 352]
27 | 18.5 | 21.49 | 398 | – | – | – | – | Cc1cc(C(=O)NCc2cc3nc(-c4cccc(N5C[C@@H](C)O[C@@H](C)C5)n4)ccc3cn2)cc2c1OCC[C@H](C)S2(=O)=O [Compound 456]
28 | – | – | – | 41.6 | – | 399 | 9.60 | O=C(NCc1cc2nc(-c3cncc(C4CC4)n3)ccc2cn1)c1cnc2c(c1)S(=O)(=O)CCCC2 [Compound 230]
29 | – | – | – | 29 | 17.78 | 515 | – | O=C(NCc1cc2nc(N3CCCc4cnc(C5CC5)nc43)ccc2cn1)c1ccc2c(c1)S(=O)(=O)CCOC2 [Compound 780]
30 | 95.1 | 9.06 | 862 | – | – | – | – | CO[C@@H]1COc2c(-c3ccc4cnc(CNC(=O)c5ccc6c(c5)S(=O)(=O)CCOC6)cc4n3)cccc2N(C)C1 [Compound 614]
31 | – | – | – | 869 | – | 6360 | 7.32 | O=C(NCc1cc2nc(-c3cncc(C4CC4)n3)ccc2cn1)c1ccc2c(c1)[S+]([O-])CCOC2 (stereo not drawn) [Compound 299]
32 | – | – | – | 5.4 | 4.12 | 22.1 | – | [2H]C1([2H])OC([2H])([2H])[C@H](C)S(=O)(=O)c2cc(C(=O)NCc3cc4nc(-c5cccc(N6C[C@@H](C)O[C@@H](C)C6)n5)ccc4cn3)ccc21 [Compound 715]
33 | – | – | – | 13.1 | – | 262 | 20.03 | C[C@@H]1CN(c2cccc(-c3ccc4cnc(CNC(=O)c5ccc(C(F)F)c(S(C)(=O)=O)c5)cc4n3)n2)C[C@@H](C)O1 [Compound 158]
